Measured values taken from article PMC5081312, “Antifouling phenyl ethers and other compounds from the invertebrates and their symbiotic fungi collected from the South China Sea” (AMB Express, 2016).
Converted amounts (≈) assume the structure as drawn. Like-named read-outs stand apart in the source and are kept apart here.

Columns and labels:
[1] = in vivo; details: Artemia salina (brine shrimp), in vivo
Description: (§1) The brine shrimp lethality bioassay on Artemia salina was performed to predict the toxicity of the compounds. The test was conducted using 24-well plate as described previously according to standard protocols (Solis et al. [1993]; Meyer et al. [1982]). The wells containing FSW-DMSO (v/v 1:1000) served as the negative controls. Adriamycin was used as a positive control. There were three replicate wells per concentration, and each bioassay experiment had three replicates using three different batches of brine shrimp.

[2] = system: cyprids of barnacle B. amphitrite; parameters: method as in Jacobson and Willingham [2000]; details: concentration used for positive control; ref Jacobson and Willingham [2000]; cited from earlier work
[3] = system: cyprids of barnacle B. amphitrite; assay: Anti-larval settlement bioassay (antifouling activity and larval toxicity); type: in vivo; details: for LC50/EC50 ratio (therapeutic ratio): B. amphitrite cyprids, ratio >15 considered non-toxic; for EC50: read-out: EC50 (larval settlement inhibition)
Description: (§2) The newly released nauplii were screened with the aperture of 90 μm. The newly released nauplii were raised in filtered seawater (FSW) at 28 °C with mild aeration and fed with Chaetoceros gracilis Schutt at 1 × 10^6 cells ml^−1. The nauplius larvae transformed into cyprids (ready to attach and metamorphose) after 3.5 days. Newly transformed cyprids were kept in filtered seawater at 4 °C overnight before being used in the anti-larval settlement bioassay.
(§3) The antifouling activity was evaluated as larval settlement inhibition against the cyprids of barnacle B. amphitrite using 24-well polystyrene plates (Nunc, Naperville, CA, USA). Each compound was dissolved in a stock solution of DMSO with the concentration of 50 mg ml^−1, and then diluted 1000 times with FSW to 50 μg ml^−1. The compound was further transferred into FSW to make up the following test solution with the concentrations ranging from 25 to 0.50 μg ml^−1. One millilitre of the test solution and 16–20 larvae were allocated to each well of the 24-well plate. Each concentration had three replicate wells. The plates were cultivated in darkness for 48 h at 28 °C. The effects of the test compounds against the larvae settlement were determined by examining the plates under a dissecting microscope to check for (1) settled larvae (attached and metamorphosed), (2) swimming larvae, as well as (3) any possible toxic effects of the treatments (dead and paralyzed). The number of the settled larvae was expressed as a percentage of the total number of larvae per well. Each compound was tested by triplicate experiments using three different batches of larvae.
(§4) The EC50 and LC50 values of each compound were calculated according to the records of anti-larval settlement experiments. […] Then a concentration–response curve was plotted and a tread line was set up.

[4] = as above; type: in vivo; details: Balanus (Amphibalanus) amphitrite (barnacle cyprid larvae), in vivo, cyprids of B. amphitrite, 48 h at 28 °C, concentration where 50% of larvae were dead; for LC50 at 48 h: other: larvae immersed in test solution
Description: as §2, §3, §4

[5] = system: brine shrimps Artemia salina; assay: in vivo; details: read-out: LC50 (brine shrimp lethality); Artemia salina
Description: as §1

[6] = cyprids of B. amphitrite, 48 h at 28 °C, concentration where 50% of larvae were inhibited to settle vs negative control
[7] = Amphibalanus amphitrite, 48 h, cyprids of B. amphitrite, 48 h at 28 °C, concentration where 50% of larvae were inhibited to settle vs negative control
[8] = LC50 (brine shrimp lethality), Artemia salina
[9] = Amphibalanus amphitrite, cyprids of B. amphitrite, 48 h at 28 °C, concentration where 50% of larvae were inhibited to settle vs negative control

Work on COc1cccc2c1C(=O)c1c(O)c3c(c(O)c1C2=O)C[C@@](O)(C(=O)CO)C[C@@H]3O[C@H]1C[C@H](N)[C@H](O)[C@H](C)O1 [Adriamycin, reference compound] yielded an LC50 [1] of 12 µM.

In the case of CCCCCCCCn1sc(Cl)c(Cl)c1=O [Sea-Nine 211™, reference compound], the “EC50 value against B. amphitrite” value [2] is given as 1.23 µg/mL (≈ 4.36 µM), the “LC50/EC50 ratio (therapeutic ratio)” value [3] is given as 20.3 and the LC50 ([3]; cyprids of B. amphitrite, 48 h at 28 °C, concentration where 50% of larvae were dead) is given as 88.7 µM. It also gave an EC50 [3, 6] of 4.36 µM.

In the case of Cc1cc(O)cc(Oc2cc(C)cc(O)c2)c1 [compound 1, Diorcinol], the LC50 at 48 h [4] is reported as > 217 µM, the EC50 [3, 7] is reported as 32.6 µM and the “LC50/EC50 ratio (therapeutic ratio)” value [3] is reported as >6.67. The LC50 [1, 8] was 126 µM.

In the case of Cc1cc(O)cc(Oc2cc(C)cc(O)c2O)c1 [compound 2, Cordyol C], the LC50 at 48 h [4] is reported as > 203 µM, the EC50 [3, 7] is reported as 57.3 µM and the “LC50/EC50 ratio (therapeutic ratio)” value [3] is reported as >3.54. It also gave an LC50 [1, 8] of 126 µM.

With COC(=O)c1c(C)cc(Oc2cc(C)cc(O)c2)cc1O [compound 3, 4-Methoxyacyl-diorcinol] the LC50 at 48 h [4] was > 174 µM, the EC50 [3, 7] was < 10 µM and the EC50 [3, 6] was 7.43 µM. The LC50 [1, 8] was ≥ 34.7 µM and the LC50 [5] was 34.7 µM.

With COc1cc(C)cc(Oc2cc(C)cc(O)c2)c1 [compound 4, Cordyol E] the LC50 at 48 h [4] was > 205 µM, the EC50 [3, 7] was 31 µM and the “LC50/EC50 ratio (therapeutic ratio)” value [3] was >6.61. It also gave an LC50 [1, 8] of 41 µM.

For COc1cc(C)cc(Oc2cc(C)cc(OC)c2O)c1O [compound 5, 3,3′-O-dimethylviolaceol-I], the LC50 at 48 h [4] was > 172 µM, the EC50 [3, 7] was 18.4 µM and the “LC50/EC50 ratio (therapeutic ratio)” value [3] was >9.35. For the same compound, the LC50 [1, 8] was 172 µM.

In the case of COc1cc(C)cc(Oc2cc(C)cc(OC)c2OC)c1O [compound 6, Cordyol D], the LC50 at 48 h [4] is reported as > 164 µM, the EC50 [3, 7] is reported as 18.2 µM and the “LC50/EC50 ratio (therapeutic ratio)” value [3] is reported as >9.01. It also gave an LC50 [1, 8] of 164 µM.

With Cc1cc(O)cc(Oc2cc(C)cc(OC(=O)c3ccccc3)c2)c1 [compound 10, 3-O-benzoyl-diorcinol] the LC50 at 48 h [4] was > 150 µM, the EC50 [3, 7] was 12.6 µM and the “LC50/EC50 ratio (therapeutic ratio)” value [3] was >11.9. For the same compound, the LC50 [1, 8] was > 150 µM.

Compound Cc1c(Br)c(O)c(Br)c(Oc2c(Br)c(C)c(Br)c(O)c2Br)c1Br [compound 13, 2,4,6,2′,4′,6′-Hexabromo-diorcinol] has an LC50 [4] of 22 µM, an EC50 [3, 9] of 0.71 µM and an LC50 [1] of 35.6 µM.

For COC(=O)c1c(C)c(Br)c(Oc2c(Br)c(C)c(Br)c(O)c2Br)c(Br)c1O [compound 14, 2,6,2′,4′,6′-Pentabromo-4-methoxycarbonyl-diorcinol], the LC50 [4] was 29.3 µM, the EC50 [3, 9] was 1.17 µM and the LC50 [1] was > 73.3 µM.

With Cc1cc(O)cc(Oc2cc(C)cc(OC(=O)c3ccc(Br)cc3)c2)c1 [compound 15, 3-O-p-Bromobenzoyl-diorcinol] the LC50 at 48 h [4] was 60.5 µM, the EC50 [3, 7] was 2.42 µM and the LC50 [1, 8] was > 121 µM.

With C/C(=C\[C@H](O)C[C@@H](C)CCCc1ccoc1)CCCc1ccoc1 [compound 22, Furospongin-1] the LC50 at 48 h [4] was 153 µM, the EC50 [3, 7] was 6.05 µM and the “LC50/EC50 ratio (therapeutic ratio)” value [3] was 25.2. For the same compound, the “inhibition of larval settlement in preliminary screening” value ([3]; B. amphitrite, at 25.0 μg ml^−1) was “completely inhibited” and the EC50 [3, 6] was 6.06 µM.

For C=CC(C)(C)c1[nH]c2c(CC=C(C)C)cc(CC=C(C)C)cc2c1C[C@@H]1NC(=O)[C@H](C)NC1=O [compound 44, Echinulin], the LC50 [4] was > 108 µM and the EC50 ([3]; Amphibalanus amphitrite, 48 h) was > 54.2 µM.

For CO[C@H]1[C@@H](O)CC/C(C)=C/[C@H]2C=C(C)[C@@H](C)[C@H]3[C@H](CC(C)C)NC(=O)[C@]32C(=O)C[C@@H]1O [compound 46, Aspochalasin K], the LC50 [4] was > 115 µM, the EC50 [3, 9] was 17.3 µM and the “LC50/EC50 ratio (therapeutic ratio)” value [3] was >6.65.

With CC1=C[C@@H]2/C=C(\C)CC[C@H](O)[C@H](O)[C@@H](O)CC(=O)[C@]23C(=O)N[C@@H](CC(C)C)[C@@H]3[C@@H]1C [compound 47, Aspochalasin E] the LC50 [4] was > 119 µM, the EC50 [3, 9] was 32.2 µM and the “LC50/EC50 ratio (therapeutic ratio)” value [3] was >3.70.
